# Experimental data published in US9663463B2, “3-azabicyclo[3.1.0]hexane derivative and use thereof for medical purpose” (priority 2013, dated 2017).
# Where a name gives a salt, the structure may show the parent alone.
# Target: human μ-opioid receptor (Homo sapiens (Human), UniProt P35372)
# Experiment: Antagonist activity test using [35S]-GTPγS bond as index using human μ-opioid receptor-expressing cell membrane
# Type: biochemical
# Protocol: Cells in which a human μ-opioid receptor had been highly expressed was purchased from ChanTest (Cleveland). The cells were cultured in a carbon dioxide gas culturing apparatus by using a Ham's F12 culture medium (Invitrogen) containing 10% of fetal bovine blood serum, 1% of non-essential amino acids, 0.4 mg/ml of G418, 100 U/ml of penicillin and 100 μg/ml of streptomycin. The cultured cells were suspended by using a 0.25% trypsin 1 mM EDTA solution, the suspension was collected by using phosphate-buffered saline and centrifuged at 4° C. and 1,000 rpm for 10 minute to remove the supernatant, whereby a cell mass was obtained. […] Similar homogenization and centrifugation operations were repeated on the sediment, a homogenized buffer was added again to the obtained sediment, and the resultant was similarly homogenized to give a membrane fraction solution. The obtained membrane fraction solution was dispensed, rapidly frozen and stored under freezing at −70° C. or less until use. Furthermore, the protein concentration of the obtained membrane fraction solution was measured by using a BCA protein Assay Kit (Cat. 23227, Pierce) according to the protocol attached to the kit.
# The cell membrane fraction solution in which the human μ-opioid receptor had expressed, which had been stored under freezing, was melted, a GTP assay buffer (100 mM NaCl, 5 mM MgCl2, 1 mM EDTA-containing 50 mM Hepes (pH 7.4)) was added thereto, and the resultant was homogenized repeatedly twice by using a Polytron homogenizer (SMT Multi Disperser PB95) under ice cooling at 12,000 rpm for 20 seconds to give a homogeneous solution, and the homogeneous solution was diluted to 0.036 mg/ml with a GTP assay buffer containing 18.2 μM of GDP (final concentration: […]). The dilution was incubated for 15 minutes or more under ice cooling until the reaction was initiated. […] [^35S]-GTPγS (NEG030X, Perkinelmer) was diluted with a GTP assay buffer so as to be 0.616 nM (final concentration: 0.08 nM). The resultant was diluted with a GTP assay buffer so as to be 200 nM (final concentration: 10 nM) by using [D-Ala^2, N-Me-Phe^4, Gly^5-ol]-enkephalinacetate (DAMGO, Sigma) as a μ-opioid receptor agonist. WGA Coated PVT SPA Beads (RPNQ0001, Perkinelmer) were added so as to be 20 mg/ml with a GTP assay buffer, and the resultant was suspended (final concentration: 1 mg/well). 4 μL/well of a test substance solution, 10 μL/well of a DAMGO solution, 26 μL/well of a [^35S]-GTPγS solution, […] of a suspension liquid of WGA Coated PVT SPA Beads, and 110 μL/well of the membrane fraction solution were added to a 96 well plate (1450-401, Perkinelmer), the top part of the plate was sealed, and a reaction was performed at 30° C. for 60 minutes under stirring with a plate shaker. For each measurement plate, a well to which DMSO had been added instead of the test substance, and a well to which DMSO had been added instead of the test substance and a GTP assay buffer had been added instead of the DAMGO solution were prepared. Furthermore, after the reaction was completed, the reactant was centrifuged at room temperature and 1,000 rpm for 3 minutes, and the radioactivity was measured by a microplate scintillation luminescence counter (Perkinelmer).
# The IC50 value of the test substance was calculated by using Graphpad Prism 5.
row,SMILES,IC50 [nM]
1,"CC[C@]1(c2cccc(NS(=O)(=O)C3CC3)c2)[C@@H]2CN(CC3(O)Cc4ccccc4C3)C[C@@H]21 [Example 1-(b), N-(3-{(1R,5S,6r)-6-ethyl-3-[(2-hydroxy-2,3-dihydro-1H-inden-2-yl)methyl]-3-azabicyclo[3.1.0]hexan-6-yl}phenyl)cyclopropanesulfonamide hydrochloride]",1.5
2,"CCOC1(CCCN2C[C@@H]3[C@H](C2)[C@@]3(CC)c2cccc(NS(=O)(=O)C3CC3)c2)CCC(F)(F)CC1 [Example 14-(b), N-(3-{(1R,5S,6r)-3-[3-(1-ethoxy-4,4-difluorocyclohexyl)propyl]-6-ethyl-3-azabicyclo[3.1.0]hexan-6-yl}phenyl)cyclopropanesulfonamide hydrochloride]",1.3
3,"CC[C@]1(c2cc(NS(=O)(=O)C3CC3)ccc2F)[C@@H]2CN(CC3(OC)Cc4ccccc4C3)C[C@@H]21 [Example 11-(b), N-(3-{(1R,5S,6r)-6-ethyl-3-[(2-methoxy-2,3-dihydro-1H-inden-2-yl)methyl]-3-azabicyclo[3.1.0]hexan-6-yl}-4-fluorophenyl)cyclopropanesulfonamide hydrochloride]",2.8
